Marks after values point to notes of the source that are not given here. Blank lines part the entries; values can stand above or below the molecule they belong to.
Test system: rats
Assay: 28-day repeated dose study in rats with mass spectrometry-based plasma metabolite profiling (GC-MS, LC-MS, SPE-LC-MS); treatment ratios versus control
Settings: plasma; for Adrenaline (Epinephrine), treatment ratio versus control / Glucosamine, treatment ratio versus control / Histamine, treatment ratio versus control / Mannosamine, treatment ratio versus control: Table 2b glomerular-tubular defect; for 4-Hydroxy-3-methoxyphenylglycol (HMPG), treatment ratio versus control / Cysteine, treatment ratio versus control / Isopalmitic acid (C16:0), treatment ratio versus control / Metanephrine, treatment ratio versus control / Normetanephrine, treatment ratio versus control: Table 2d glomerular-tubular defect; for Arginine, treatment ratio versus control / Indole-3-lactic acid, treatment ratio versus control / Ketoleucine, treatment ratio versus control / Proline, treatment ratio versus control / Tryptophan, treatment ratio versus control / trans-4-Hydroxyproline, treatment ratio versus control: Table 4b inhibition of weak acid excretion; for Choline plasmalogen No 02 (putative), treatment ratio versus control / Lysophosphatidylcholine (C17:0), treatment ratio versus control / TAG (C42:9) (DAG-Fragment) (putative), treatment ratio versus control: Table 11b alpha 2 u globulin-nephropathy
[1] = female rats, day 14, high dose, Table 2a glomerular-tubular defect
[2] = female rats, day 28, high dose, Table 2a glomerular-tubular defect
[3] = male rats, day 7, high dose, Table 2c glomerular-tubular defect
[4] = male rats, day 14, high dose, Table 2c glomerular-tubular defect
[5] = male rats, day 28, high dose, Table 2c glomerular-tubular defect
[6] = female rats, day 7, high dose, Table 4a inhibition of weak acid excretion
[7] = female rats, day 14, high dose, Table 4a inhibition of weak acid excretion
[8] = female rats, day 28, high dose, Table 4a inhibition of weak acid excretion
[9] = male rats, day 7, high doses except for 1,1,2,2-tetrachloroethane
[10] = male rats, day 14, high doses except for 1,1,2,2-tetrachloroethane
[11] = male rats, day 28, high doses except for 1,1,2,2-tetrachloroethane

Protocol: A group of each 5 male and female rats was dosed once daily with the indicated compounds (see Table 9, below for compounds, applied doses and administration details) over 28 days.
Each dose group in the studies consisted of five rats per sex. Additional groups of each 5 male and female animals served as controls. Before starting the treatment period, animals, which were 62-64 days old when supplied, were acclimatized to the housing and environmental conditions for 7 days. All animals of the animal population were kept under the same constant temperature (20-24±3° C.) and the same constant humidity (30-70%). The animals of the animal population were fed ad libitum. The food to be used was essentially free of chemical or microbial contaminants. Drinking water was also offered ad libitum. […] The illumination period was 12 hours light followed by 12 hours darkness (12 hours light, from 6:00 to 18:00, and 12 hours darkness, from 18:00 to 6:00). […] The test substances (compounds in Table 9 were dosed and administered as described in the table above.
In the morning of day 7, 14, and 28, blood was taken from the retroorbital venous plexus from fasted anaesthetized animals. From each animal, 1 ml of blood was collected with EDTA as anticoagulant. The samples were centrifuged for generation of plasma. All plasma samples were covered with a N2 atmosphere and then stored at −80° C. until analysis.
For mass spectrometry-based metabolite profiling analyses plasma samples were extracted and a polar and a non-polar (lipid) fraction was obtained. For GC-MS analysis, the non-polar fraction was treated with methanol under acidic conditions to yield the fatty acid methyl esters. Both fractions were further derivatised with O-methyl-hydroxyamine hydrochloride and pyridine to convert Oxo-groups to O-methyloximes and subsequently with a silylating agent before analysis. In LC-MS analysis, both fractions were reconstituted in appropriate solvent mixtures. HPLC was performed by gradient elution on reversed phase separation columns.
Steroids and their metabolites were measured by online SPE-LC-MS (Solid phase extraction-LC-MS).
Following comprehensive analytical validation steps, the data for each analyte were normalized against data from pool samples. These samples were run in parallel through the whole process to account for process variability. The significance of treatment group values specific for sex, treatment duration and metabolite was determined by comparing means of the treated groups to the means of the respective untreated control groups using WELCH-test and quantified with treatment ratios versus control and p-values.

3-Hydroxyindole, treatment ratio versus control [1]: 1.35 | 3-Indoxylsulfate, treatment ratio versus control [1]: 1.2 | Creatine, treatment ratio versus control [1]: 1.18* | Creatinine, treatment ratio versus control [1]: 1.06 | Elaidic acid (C18:trans[9]1), treatment ratio versus control [1]: 1.18 | Lysophosphatidylcholine (C20:4), treatment ratio versus control [1]: 1.04 | Xylitol, treatment ratio versus control [1]: 1.17 | Adrenaline (Epinephrine), treatment ratio versus control (female rats, day 14, high dose): 1.27 | Glucosamine, treatment ratio versus control (female rats, day 14, high dose): 0.4 * | Histamine, treatment ratio versus control (female rats, day 14, high dose): 0.93 | Mannosamine, treatment ratio versus control (female rats, day 14, high dose): 0.69 * | 3-Hydroxyindole, treatment ratio versus control [2]: 1.21 * | 3-Indoxylsulfate, treatment ratio versus control [2]: 1.21 * | Creatine, treatment ratio versus control [2]: 1.33 * | Creatinine, treatment ratio versus control [2]: 1.93 * | Elaidic acid (C18:trans[9]1), treatment ratio versus control [2]: 1.22 * | Lysophosphatidylcholine (C20:4), treatment ratio versus control [2]: 1.24 * | Xylitol, treatment ratio versus control [2]: 1.31 * | Adrenaline (Epinephrine), treatment ratio versus control (female rats, day 28, high dose): 0.28 * | Glucosamine, treatment ratio versus control (female rats, day 28, high dose): 1.06^ | Histamine, treatment ratio versus control (female rats, day 28, high dose): 0.81 * | Mannosamine, treatment ratio versus control (female rats, day 28, high dose): 1.04^ | Creatine, treatment ratio versus control [3]: 1.16 * | Creatinine, treatment ratio versus control [3]: 1.32^ | Glycerol-3-phosphate, polar fraction, treatment ratio versus control [3]: 1.28 * | Lysophosphatidylcholine (C18:2), treatment ratio versus control [3]: 1.07 * | Threonic acid, treatment ratio versus control [3]: 1.37 * | 4-Hydroxy-3-methoxyphenylglycol (HMPG), treatment ratio versus control (male rats, day 7, high dose): 1.07^ | Cysteine, treatment ratio versus control (male rats, day 7, high dose): 0.59 * | Isopalmitic acid (C16:0), treatment ratio versus control (male rats, day 7, high dose): 0.78 * | Metanephrine, treatment ratio versus control (male rats, day 7, high dose): 0.81 * | Normetanephrine, treatment ratio versus control (male rats, day 7, high dose): 0.9 | Creatine, treatment ratio versus control [4]: 1.06 * | Creatinine, treatment ratio versus control [4]: 1.12 * | Glycerol-3-phosphate, polar fraction, treatment ratio versus control [4]: 0.97^ | Lysophosphatidylcholine (C18:2), treatment ratio versus control [4]: 1.2 * | Threonic acid, treatment ratio versus control [4]: 1.27 * | 4-Hydroxy-3-methoxyphenylglycol (HMPG), treatment ratio versus control (male rats, day 14, high dose): 0.91 * | Cysteine, treatment ratio versus control (male rats, day 14, high dose): 0.77 * | Isopalmitic acid (C16:0), treatment ratio versus control (male rats, day 14, high dose): 0.64 * | Metanephrine, treatment ratio versus control (male rats, day 14, high dose): 0.7 * | Normetanephrine, treatment ratio versus control (male rats, day 14, high dose): 0.89 * | Creatine, treatment ratio versus control [5]: 1.31 | Creatinine, treatment ratio versus control [5]: 1.05 | Glycerol-3-phosphate, polar fraction, treatment ratio versus control [5]: 1.29 * | Lysophosphatidylcholine (C18:2), treatment ratio versus control [5]: 1.09 | Threonic acid, treatment ratio versus control [5]: 1.14 * | 4-Hydroxy-3-methoxyphenylglycol (HMPG), treatment ratio versus control (male rats, day 28, high dose): 0.86 * | Cysteine, treatment ratio versus control (male rats, day 28, high dose): 0.72 * | Isopalmitic acid (C16:0), treatment ratio versus control (male rats, day 28, high dose): 0.83^ | Metanephrine, treatment ratio versus control (male rats, day 28, high dose): 0.76 * | Normetanephrine, treatment ratio versus control (male rats, day 28, high dose): 0.73 *
SMILES: C[C@H](CS)C(=O)N1CCC[C@H]1C(=O)O [Captopril]

SMILES: Oc1c(Cl)c(Cl)c(Cl)c(Cl)c1Cl [Pentachlorophenol]
Glycerol, lipid fraction, treatment ratio versus control [6]: 1.56 * | Linoleic acid (C18:cis[9,12]2), treatment ratio versus control [6]: 1.35 * | Lysophosphatidylcholine (C18:2), treatment ratio versus control [6]: 1.32 * | Phosphatidylcholine (C16:0, C16:0), treatment ratio versus control [6]: 1.04^ | Phosphatidylcholine (C16:0, C18:2), treatment ratio versus control [6]: 1.02^ | Phosphatidylcholine (C16:0, C20:5), treatment ratio versus control [6]: 1.05 * | Phosphatidylcholine (C16:1, C18:2), treatment ratio versus control [6]: 0.87^ | Phosphatidylcholine (C18:0, C18:1), treatment ratio versus control [6]: 0.98^ | Phosphatidylcholine (C18:1, C18:2), treatment ratio versus control [6]: 0.85^ | gamma-Linolenic acid (C18:cis[6,9,12]3), treatment ratio versus control [6]: 0.78 * | Arginine, treatment ratio versus control (female rats, day 7, high dose): 0.56 * | Indole-3-lactic acid, treatment ratio versus control (female rats, day 7, high dose): 0.62 * | Ketoleucine, treatment ratio versus control (female rats, day 7, high dose): 0.6 * | Proline, treatment ratio versus control (female rats, day 7, high dose): 0.73 * | Tryptophan, treatment ratio versus control (female rats, day 7, high dose): 0.6 * | trans-4-Hydroxyproline, treatment ratio versus control (female rats, day 7, high dose): 0.87 * | Glycerol, lipid fraction, treatment ratio versus control [7]: 2.38 * | Linoleic acid (C18:cis[9,12]2), treatment ratio versus control [7]: 1.8 * | Lysophosphatidylcholine (C18:2), treatment ratio versus control [7]: 1.41 * | Phosphatidylcholine (C16:0, C16:0), treatment ratio versus control [7]: 1.25 * | Phosphatidylcholine (C16:0, C18:2), treatment ratio versus control [7]: 1.34 * | Phosphatidylcholine (C16:0, C20:5), treatment ratio versus control [7]: 1.57 * | Phosphatidylcholine (C16:1, C18:2), treatment ratio versus control [7]: 1.32 * | Phosphatidylcholine (C18:0, C18:1), treatment ratio versus control [7]: 1.54 * | Phosphatidylcholine (C18:1, C18:2), treatment ratio versus control [7]: 1.4 * | gamma-Linolenic acid (C18:cis[6,9,12]3), treatment ratio versus control [7]: 1.81^ | Arginine, treatment ratio versus control (female rats, day 14, high dose): 0.72^ | Indole-3-lactic acid, treatment ratio versus control (female rats, day 14, high dose): 0.65 * | Ketoleucine, treatment ratio versus control (female rats, day 14, high dose): 0.64 * | Proline, treatment ratio versus control (female rats, day 14, high dose): 0.74 * | Tryptophan, treatment ratio versus control (female rats, day 14, high dose): 0.62 * | trans-4-Hydroxyproline, treatment ratio versus control (female rats, day 14, high dose): 0.92^ | Glycerol, lipid fraction, treatment ratio versus control [8]: 1.61 * | Linoleic acid (C18:cis[9,12]2), treatment ratio versus control [8]: 1.73 * | Lysophosphatidylcholine (C18:2), treatment ratio versus control [8]: 1.66 * | Phosphatidylcholine (C16:0, C16:0), treatment ratio versus control [8]: 1.1 * | Phosphatidylcholine (C16:0, C18:2), treatment ratio versus control [8]: 1.49 * | Phosphatidylcholine (C16:0, C20:5), treatment ratio versus control [8]: 1.67 * | Phosphatidylcholine (C16:1, C18:2), treatment ratio versus control [8]: 1.54 * | Phosphatidylcholine (C18:0, C18:1), treatment ratio versus control [8]: 1.41 * | Phosphatidylcholine (C18:1, C18:2), treatment ratio versus control [8]: 1.3 * | gamma-Linolenic acid (C18:cis[6,9,12]3), treatment ratio versus control [8]: 3.23 * | Arginine, treatment ratio versus control (female rats, day 28, high dose): 0.44 * | Indole-3-lactic acid, treatment ratio versus control (female rats, day 28, high dose): 0.49 * | Ketoleucine, treatment ratio versus control (female rats, day 28, high dose): 0.6 * | Proline, treatment ratio versus control (female rats, day 28, high dose): 0.74 * | Tryptophan, treatment ratio versus control (female rats, day 28, high dose): 0.54 * | trans-4-Hydroxyproline, treatment ratio versus control (female rats, day 28, high dose): 0.94 *

SMILES: ClC(Cl)C(Cl)Cl [1,1,2,2-Tetrachloroethane]
3-Hydroxyindole (ratio treated vs control) (m7: male rats, day 7): 1.39 | 4-Hydroxysphinganine (t18:0, Phytosphingosine), total (ratio treated vs control) (m7: male rats, day 7): 2.03 | Glucuronic acid (ratio treated vs control) (m7: male rats, day 7): 3.97 | Glutamate (ratio treated vs control) (m7: male rats, day 7): 2.31 | Nervonic acid (C24:cis[15]1) (ratio treated vs control) (m7: male rats, day 7): 1.09 | Oleic acid (C18:cis[9]1) (ratio treated vs control) (m7: male rats, day 7): 1.11 | Ornithine (ratio treated vs control) (m7: male rats, day 7): 2.10 | Pantothenic acid (ratio treated vs control) (m7: male rats, day 7): 4.46 | Phosphatidylcholine (C18:0, C18:1) (ratio treated vs control) (m7: male rats, day 7): 1.48 | Pseudouridine (ratio treated vs control) (m7: male rats, day 7): 1.17 | Sphingomyelin (d18:1, C16:0) (ratio treated vs control) (m7: male rats, day 7): 1.65 | Sphingomyelin (d18:2, C18:0) (ratio treated vs control) (m7: male rats, day 7): 1.22 | Xylitol (ratio treated vs control) (m7: male rats, day 7): 12.21 | dihomo-gamma-Linolenic acid (C20:cis[8,11,14]3) (ratio treated vs control) (m7: male rats, day 7): 2.56 | 3-Hydroxyindole (ratio treated vs control) (m14: male rats, day 14): 2.05 | 4-Hydroxysphinganine (t18:0, Phytosphingosine), total (ratio treated vs control) (m14: male rats, day 14): 2.04 | Glucuronic acid (ratio treated vs control) (m14: male rats, day 14): 1.20 | Glutamate (ratio treated vs control) (m14: male rats, day 14): 1.80 | Nervonic acid (C24:cis[15]1) (ratio treated vs control) (m14: male rats, day 14): 0.96 | Oleic acid (C18:cis[9]1) (ratio treated vs control) (m14: male rats, day 14): 1.18 | Ornithine (ratio treated vs control) (m14: male rats, day 14): 2.38 | Pantothenic acid (ratio treated vs control) (m14: male rats, day 14): 4.32 | Phosphatidylcholine (C18:0, C18:1) (ratio treated vs control) (m14: male rats, day 14): 1.21 | Pseudouridine (ratio treated vs control) (m14: male rats, day 14): 1.51 | Sphingomyelin (d18:1, C16:0) (ratio treated vs control) (m14: male rats, day 14): 1.34 | Sphingomyelin (d18:2, C18:0) (ratio treated vs control) (m14: male rats, day 14): 0.93 | Xylitol (ratio treated vs control) (m14: male rats, day 14): 10.32 | dihomo-gamma-Linolenic acid (C20:cis[8,11,14]3) (ratio treated vs control) (m14: male rats, day 14): 3.40 | 3-Hydroxyindole (ratio treated vs control) (m28: male rats, day 28): 2.05 | 4-Hydroxysphinganine (t18:0, Phytosphingosine), total (ratio treated vs control) (m28: male rats, day 28): 2.04 | Glucuronic acid (ratio treated vs control) (m28: male rats, day 28): 1.20 | Glutamate (ratio treated vs control) (m28: male rats, day 28): 1.80 | Nervonic acid (C24:cis[15]1) (ratio treated vs control) (m28: male rats, day 28): 0.96 | Oleic acid (C18:cis[9]1) (ratio treated vs control) (m28: male rats, day 28): 1.18 | Ornithine (ratio treated vs control) (m28: male rats, day 28): 2.38 | Pantothenic acid (ratio treated vs control) (m28: male rats, day 28): 4.32 | Phosphatidylcholine (C18:0, C18:1) (ratio treated vs control) (m28: male rats, day 28): 1.21 | Pseudouridine (ratio treated vs control) (m28: male rats, day 28): 1.51 | Sphingomyelin (d18:1, C16:0) (ratio treated vs control) (m28: male rats, day 28): 1.34 | Sphingomyelin (d18:2, C18:0) (ratio treated vs control) (m28: male rats, day 28): 0.93 | Xylitol (ratio treated vs control) (m28: male rats, day 28): 10.32 | dihomo-gamma-Linolenic acid (C20:cis[8,11,14]3) (ratio treated vs control) (m28: male rats, day 28): 3.40 | Choline plasmalogen No 02 (putative), treatment ratio versus control [9]: 1.04 | Lysophosphatidylcholine (C17:0), treatment ratio versus control [9]: 0.63 | TAG (C42:9) (DAG-Fragment) (putative), treatment ratio versus control [9]: 0.76 | Choline plasmalogen No 02 (putative), treatment ratio versus control [10]: 1.13 | Lysophosphatidylcholine (C17:0), treatment ratio versus control [10]: 0.89 | TAG (C42:9) (DAG-Fragment) (putative), treatment ratio versus control [10]: 0.72 | Choline plasmalogen No 02 (putative), treatment ratio versus control [11]: 1.13 | Lysophosphatidylcholine (C17:0), treatment ratio versus control [11]: 0.89 | TAG (C42:9) (DAG-Fragment) (putative), treatment ratio versus control [11]: 0.72
